In patent US9750259B2, “Pyroxasulfone and glutamine synthesis inhibitor compositions for weed control” (Valent U.S.A., priority 2014, dated 2017):

Tests used:
Palmer Amaranth [1] = test: Field test in Roundup Ready soybeans: residual control of Palmer Amaranth, reading 21 DAT; type: in vivo, Amaranthus palmeri; conditions: all treatments with MSO 1% v/v, glufosinate 593, pyroxasulfone 90, flumiclorac-pentyl 73 g active/ha, % printed in b55 only
Protocol: (§1) The following field test was conducted. Roundup Ready soybeans (Glycine max) were used in the test as the crop plant. All of the treatments contained MSO concentrate oil at 1% v/v.
(§2) When the test began, the test plot had weeds that were less than […] tall. Treatments were administered at the concentrations as follows. Glufosinate-ammonium was administered at 593 grams/hectare. Pyroxasulfone was administered at 90 grams/hectare throughout the experiment.
(§3) On 14 DAT, readings were taken to determine the survival of Palmer Amaranth. On 21 DAT, readings were taken to determine the residual control of Palmer Amaranth and Horseweed. Survival ratings were taken by counting the number of alive and dead plants at the time of the reading. All data was analyzed using Bartlett's test and with p value of […] for determining significance of the results. The Effect of Glufosinate and Pyroxasulfone on Weeds.”

Horseweed = test: Field test in Roundup Ready soybeans: control of Horseweed, reading 21 DAT; type: in vivo, Conyza Canadensis; conditions: all treatments with MSO 1% v/v, glufosinate 593, pyroxasulfone 90, flumiclorac-pentyl 73 g active/ha, % printed in b55 only
Protocol: as §1, §2, §3

Palmer Amaranth [2] = test: Field test in Roundup Ready soybeans: control (kill) of emerged Palmer Amaranth, reading 14 DAT; type: in vivo, Amaranthus palmeri; conditions: post emergence, all treatments with MSO 1% v/v, glufosinate 593, pyroxasulfone 90, flumiclorac-pentyl 73 g active/ha, % printed in b55 only
Protocol: as §1, §2, §3

Row | SMILES | Residual control of Palmer amaranth (Palmer Amaranth [1]) [%] | Horseweed (bolted) control / kill rate (Horseweed) [%] | Palmer amaranth (<2″ tall) control / kill rate (Palmer Amaranth [2]) [%]
1 | CP(=O)(O)CCC(N)C(=O)O (racemic) [glufosinate, DL-4-[hydroxy](methyl)phosphinoyl]-DL-homoalaninate] | 93 | 75 | 90
2 | Cn1nc(C(F)(F)F)c(CS(=O)(=O)C2=NOC(C)(C)C2)c1OC(F)F [pyroxasulfone, 3-[[[5-(difluoromethoxy)-1-methyl-3 (trifluoromethyl)-1H-pyrazol-4-yl]methyl]sulfonyl]-4,5-dihydro-5,5-dimethylisoxazole] | 99 |  | 5
